In article PMC11695783 (Frontiers in Pharmacology, 2024):
In brackets after ≈: the same amount, converted by molar mass. Like-named read-outs stand apart in the source and are kept apart here.

Key:
M. pneumoniae = tested on: M. pneumoniae; parameters: method as in Eraikhuemen et al., 2021; conditions: against M. pneumoniae; ref Eraikhuemen et al., 2021; cited from earlier work
mice = conditions: oral acute toxicity; ref Fan et al., 2022; Hu et al.; Zhang et al., 2015; Zuo et al., 2020; cited from earlier work
[1] = parameters: method as in Wang Y. et al., 2024; Zuo et al., 2020; conditions: chickens, ref Wang Y. et al., 2024, Zuo et al., 2020, cited from earlier work
[2] = 2020, cited from earlier work; for AUC0-∞: ref Zuo et al.; for bioavailability: mice, ref Wang Y. et al., 2024, Zuo et al.
[3] = broilers, cited from earlier work
[4] = tested on: Mycoplasma pneumoniae strain M129 (ATCC 29342); test: Time-kill curves; assay type: cell-based; parameters: M. pneumoniae count in time-kill curve: unit not given here
Protocol: (§1) Mycoplasma pneumoniae strain M129 (ATCC 29342) was obtained from American Type Culture Collection (Manassas, VA, United States) and cultured at 37°C in the presence of 5% CO2 in the modified SP-4 liquid medium (pH 7.4) containing 2.1% (w/v) CM1166 mycoplasma broth base medium (Oxoid, Hants, United Kingdom), 20% (v/v) fetal bovine serum (FBS, Bioexplorer, CO, United States), 0.4% yeast extract (Oxoid), 0.55% (w/v) CMRL 1066 w/L-glutamine culture media powder (MyBioSource, San Diego, CA, United States), 1% D-glucose (Macklin) and 0.004% phenol red (Macklin). […] The solid medium is based on the above formula with the addition of 1% agar, and the characteristic fried egg-like colonies were used for experiments following incubation for 7 d on plates.
The tubes were incubated at 37°C in 5% CO2 for 72 h, and 200 µL of the culture was removed every 12 h for 10-fold serial dilutions. The diluted cultures were plated on plates for further culture and counted after 7 d. The experiment was repeated three times.

[5] = tested on: Mycoplasma pneumoniae strain M129 (ATCC 29342); test: Susceptibility assay (broth microdilution MIC, MBC); assay type: cell-based
Protocol: as §1
The broth microdilution MIC procedure was performed according to standardized methods for microdilution susceptibility testing of mycoplasma species ([Waites et al., 2012]). […] The concentration of organisms should be determined to approximately 10^6 CFU/mL prior to inoculation into 96-well plates. Due to the action of phenol red, the acidic metabolites of microbial growth can turn the medium yellow. […] The MBC assays were performed based on MICs following endpoint reading and the liquid in the high-concentration wells was removed for bacterial counting.

For `C=C[C@]1(C)C[C@@H](OC(=O)CS[C@@H]2CC[C@@H](N)C[C@H]2O)[C@]2(C)[C@H](C)CC[C@]3(CCC(=O)[C@H]32)[C@@H](C)[C@@H]1O` [lefamulin], the MIC90 (M. pneumoniae) is given as 0.006 µg/mL (≈ 0.0118 µM).

For `C=C[C@]1(C)C[C@@H](OC(=O)CSc2ccccc2N)[C@]2(C)[C@H](C)CC[C@]3(CCC(=O)[C@H]32)[C@@H](C)[C@@H]1O` [amphenmulin, 22-(2-amino-phenylsulfanyl)-22-deoxypleuromutilin], the LD50 (mice) is given as > 5,000 mg/kg, the bioavailability ([1]; IM) is given as 52.14% and the bioavailability ([1]; PO) is given as 5.88%. The “AUC0-∞” value ([2]; intraperitoneal, at the same dose) was 2520 ng·h/mL, the “AUC0-∞” value ([2]; intravenous, at the same dose as compound 16C) was 12230 ng·h/mL and the bioavailability ([2]; IP) was 20.71%. For the same compound, the bioavailability ([2]; PO) was 13.65% and the “AUC0-∞” value ([2]; oral, at the same dose) was 1670 ng·h/mL.

In the case of `C=C[C@]1(C)C[C@@H](OC(=O)CSc2nnc(N)s2)[C@]2(C)[C@H](C)CC[C@]3(CCC(=O)[C@H]32)[C@@H](C)[C@@H]1O` [ATTM, 14-o-[(2-amino-1,3,4-thiadiazol-5-yl)thioacetyl] mutilin], the LD50 (mice) is given as 2,304.4 mg/kg, the bioavailability ([3]; IM, ref Shang et al., 2018, Xianhui, 2010) is given as 75.29% and the bioavailability ([3]; PO, ref Shang et al., 2018, Xianhui, 2010) is given as 72.03%.

In the case of `CN(C)[C@@H]1C(O)=C(C(N)=O)C(=O)[C@@]2(O)C(O)=C3C(=O)c4c(O)cccc4[C@@](C)(O)[C@H]3C[C@@H]12` [tetracycline], the “M. pneumoniae count in time-kill curve” value ([4]; 1×MIC, time 0) is reported as 6.522, the “M. pneumoniae count in time-kill curve” value ([4]; 1×MIC, time 12) is reported as 6.243 and the “M. pneumoniae count in time-kill curve” value ([4]; 1×MIC, time 24) is reported as 5.358. The “M. pneumoniae count in time-kill curve” value ([4]; 1×MIC, time 36) was 5.0751, the “M. pneumoniae count in time-kill curve” value ([4]; 1×MIC, time 48) was 3.623 and the “M. pneumoniae count in time-kill curve” value ([4]; 1×MIC, time 60) was 4.011. For the same compound, the “M. pneumoniae count in time-kill curve” value ([4]; 1×MIC, time 72) was 4.04, the “reduction of bacterial counts” value ([4]; 1–2×MIC, 72 h) was 2.38–2.48 log10 CFU/mL and the “M. pneumoniae count in time-kill curve” value ([4]; 2×MIC, time 0) was 6.522. The “M. pneumoniae count in time-kill curve” value ([4]; 2×MIC, time 12) was 5.562, the “M. pneumoniae count in time-kill curve” value ([4]; 2×MIC, time 24) was 5.13 and the “M. pneumoniae count in time-kill curve” value ([4]; 2×MIC, time 36) was 4.505. For the same compound, the “M. pneumoniae count in time-kill curve” value ([4]; 2×MIC, time 48) was 3.395, the “M. pneumoniae count in time-kill curve” value ([4]; 2×MIC, time 60) was 3.925 and the “M. pneumoniae count in time-kill curve” value ([4]; 2×MIC, time 72) was 4.141. For the same compound, the “M. pneumoniae count in time-kill curve” value ([4]; 4×MIC, time 0) was 6.522, the “M. pneumoniae count in time-kill curve” value ([4]; 4×MIC, time 12) was 5.527 and the “M. pneumoniae count in time-kill curve” value ([4]; 4×MIC, time 24) was 4.565. For the same compound, the “M. pneumoniae count in time-kill curve” value ([4]; 4×MIC, time 36) was 4.182, the “M. pneumoniae count in time-kill curve” value ([4]; 4×MIC, time 48) was 3.523 and the “M. pneumoniae count in time-kill curve” value ([4]; 4×MIC, time 60) was 3.499. For the same compound, the “M. pneumoniae count in time-kill curve” value ([4]; 4×MIC, time 72) was 3.057, the “M. pneumoniae count in time-kill curve” value ([4]; 8×MIC, time 0) was 6.522 and the “M. pneumoniae count in time-kill curve” value ([4]; 8×MIC, time 12) was 5.0382. The “M. pneumoniae count in time-kill curve” value ([4]; 8×MIC, time 24) was 4.431, the “M. pneumoniae count in time-kill curve” value ([4]; 8×MIC, time 36) was 4.11 and the “M. pneumoniae count in time-kill curve” value ([4]; 8×MIC, time 48) was 3.568. For the same compound, the “M. pneumoniae count in time-kill curve” value ([4]; 8×MIC, time 60) was 3.5, the “M. pneumoniae count in time-kill curve” value ([4]; 8×MIC, time 72) was 3.462 and the “M. pneumoniae count in time-kill curve” value ([4]; 16×MIC, time 0) was 6.522. For the same compound, the “M. pneumoniae count in time-kill curve” value ([4]; 16×MIC, time 12) was 5.216, the “M. pneumoniae count in time-kill curve” value ([4]; 16×MIC, time 24) was 4.191 and the “M. pneumoniae count in time-kill curve” value ([4]; 16×MIC, time 36) was 3.827. The “M. pneumoniae count in time-kill curve” value ([4]; 16×MIC, time 48) was 3.742, the “M. pneumoniae count in time-kill curve” value ([4]; 16×MIC, time 60) was 3.715 and the “M. pneumoniae count in time-kill curve” value ([4]; 16×MIC, time 72) was 3.031. The “M. pneumoniae count in time-kill curve” value ([4]; 32×MIC, time 0) was 6.522, the “M. pneumoniae count in time-kill curve” value ([4]; 32×MIC, time 12) was 4.677 and the “M. pneumoniae count in time-kill curve” value ([4]; 32×MIC, time 24) was 4.038. The “M. pneumoniae count in time-kill curve” value ([4]; 32×MIC, time 36) was 3.597, the “M. pneumoniae count in time-kill curve” value ([4]; 32×MIC, time 48) was 3.571 and the “M. pneumoniae count in time-kill curve” value ([4]; 32×MIC, time 60) was 3.497. For the same compound, the “M. pneumoniae count in time-kill curve” value ([4]; 32×MIC, time 72) was 3.078, the “M. pneumoniae count in time-kill curve” value ([4]; 64×MIC, time 0) was 6.522 and the “M. pneumoniae count in time-kill curve” value ([4]; 64×MIC, time 12) was 4.323. For the same compound, the “M. pneumoniae count in time-kill curve” value ([4]; 64×MIC, time 24) was 4.306, the “M. pneumoniae count in time-kill curve” value ([4]; 64×MIC, time 36) was 3.779 and the “M. pneumoniae count in time-kill curve” value ([4]; 64×MIC, time 48) was 3.079. The “M. pneumoniae count in time-kill curve” value ([4]; 64×MIC, time 60) was 3.41, the “M. pneumoniae count in time-kill curve” value ([4]; 64×MIC, time 72) was 3.079 and the “concentration at which bactericidal effect was achieved” value ([4]; static time-kill, 72 h) was ≥ 4 × MIC. The MBC [5] was 3.2 µg/mL (≈ 7.2 µM).

In the case of `C=C[C@]1(C)C[C@@H](OC(=O)CSC(C)(C)CNC(=O)[C@H](N)C(C)C)[C@]2(C)[C@H](C)CC[C@]3(CCC(=O)[C@H]32)[C@@H](C)[C@@H]1O` [valnemulin], the bioavailability ([3]; IM, ref WANG et al., 2011) is listed as 88.81%.
